Results on 15 compounds are retold here after PubChem BioAssay AID328 (DTP/NCI, 2004).

The structures appear in SMILES notation. Values joined by “and” are separate entries in the source; they are usually repeats but may differ in a detail not shown here. Equal values may be shown once. Toxic doses and inconclusive results are not listed.

The experiment has as its system BDF1 mice, P388 leukemia ip, median survival T/C. Kind of experiment: NCI In Vivo Anticancer Drug Screen. Data for tumor model P388 Leukemia (intraperitoneal) in B6D2F1 (BDF1) mice. Conditions: endpoint: median survival time, higher = longer survival. The gist of the method:
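Read-out is survival of treated animals expressed relative to the vehicle group, as a T/C ratio.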

Setting [1] is: dose: 100.0 mg/kg/injection, schedule: Q01DX001 (ip), vehicle: saline with Tween-80.
[2] abbreviates: dose: 200.0 mg/kg/injection, schedule: Q01DX001 (ip), vehicle: saline with Tween-80.
Setting [3] is: dose: 400.0 mg/kg/injection, schedule: Q01DX001 (ip), vehicle: saline with Tween-80.
[4] abbreviates: dose: 50.0 mg/kg/injection, schedule: Q01DX009 (ip), vehicle: saline with Tween-80.
Setting [5] is: dose: 100.0 mg/kg/injection, schedule: Q01DX009 (ip), vehicle: saline with Tween-80.
Setting [6] is: dose: 200.0 mg/kg/injection, schedule: Q01DX009 (ip), vehicle: saline with Tween-80.
[7] abbreviates: dose: 50.0 mg/kg/injection, schedule: Q01DX005 (ip), vehicle: saline.
Where [8] appears, read: dose: 100.0 mg/kg/injection, schedule: Q01DX005 (ip), vehicle: saline.
Where [9] appears, read: dose: 200.0 mg/kg/injection, schedule: Q01DX005 (ip), vehicle: saline.

Turning to `Nc1nc(=S)c2[nH]cnc2[nH]1`, the T/C (dose: 0.12 mg/kg/injection, schedule: Q01DX009 (ip), vehicle: acetone) was 91 % of control; the T/C (dose: 0.25 mg/kg/injection, schedule: Q01DX009 (ip), vehicle: acetone) was 100 % of control; the T/C (dose: 0.5 mg/kg/injection, schedule: Q01DX009 (ip), vehicle: acetone) was 104 % of control; the T/C (dose: 0.63 mg/kg/injection, schedule: Q01DX010 (ip), vehicle: saline) is 122 % of control; the T/C (dose: 1.0 mg/kg/injection, schedule: Q01DX009 (ip), vehicle: acetone) was 112 % of control; the T/C (dose: 1.25 mg/kg/injection, schedule: Q01DX010 (ip), vehicle: other) is 115 % of control. Further, the T/C (dose: 1.25 mg/kg/injection, schedule: Q01DX010 (ip), vehicle: saline) is 159 % of control; the T/C (dose: 2.0 mg/kg/injection, schedule: Q01DX009 (ip), vehicle: acetone) was 95 % of control; the T/C (dose: 2.5 mg/kg/injection, schedule: Q01DX010 (ip), vehicle: other) was 111 % of control; the T/C (dose: 2.5 mg/kg/injection, schedule: Q01DX010 (ip), vehicle: saline) is 104 % of control; the T/C (dose: 5.0 mg/kg/injection, schedule: Q01DX010 (ip), vehicle: other) was 90 % of control and 100 % of control; the T/C (dose: 5.0 mg/kg/injection, schedule: Q01DX010 (ip), vehicle: saline) was 100 % of control.
On to `CC(C)(C)S(=O)(=O)CC(=O)Nc1ccccc1`, for which the T/C is 96 % of control under setting [1], 101 % of control under setting [2] and 96 % of control under setting [3].
As to `O=C(CCCN1CCC(C(=O)c2ccc(Cl)cc2)CC1)c1ccc(F)cc1`, where the note is “dose: 12.5 mg/kg/injection, schedule: Q01DX009 (ip), vehicle: Klucel (hydroxypropylcellulose) (HPC)”, the T/C is 112 % of control.
Turning to `CC(C)=CC=O`, the T/C is 100 % of control under setting [1], 96 % of control under setting [2] and 100 % of control under setting [3].
As to `Cc1c(C#N)c2n(c1C)CCCC(=O)N2`, the T/C is, setting by setting: (dose: 25.0 mg/kg/injection, schedule: Q01DX009 (ip), vehicle: saline with Tween-80) 95 % of control; under setting [4], 109 % of control; (dose: 50.0 mg/kg/injection, schedule: Q04DX003 (ip), vehicle: saline with Tween-80) 91 % of control; under setting [5], 104 % of control; (dose: 100.0 mg/kg/injection, schedule: Q04DX003 (ip), vehicle: saline with Tween-80) 91 % of control; under setting [6], 100 % of control. Further, the T/C was 87 % of control (dose: 200.0 mg/kg/injection, schedule: Q04DX003 (ip), vehicle: saline with Tween-80) and 91 % of control (dose: 400.0 mg/kg/injection, schedule: Q04DX003 (ip), vehicle: saline with Tween-80).
On to `FC(F)(F)c1ccc(C=Nc2ccc(Oc3ccccc3)cc2)cc1`, for which the T/C under setting [4] is 98 % of control, the T/C under setting [5] was 100 % of control and the T/C under setting [6] is 91 % of control.
Regarding `CCC(C(N)C(=O)O)C(F)(F)F` (stereo not drawn), the T/C was 103 % of control under setting [7], 108 % of control under setting [8] and 103 % of control under setting [9].
In the case of `NC(=S)n1cccn1`, for the setting “dose: 50.0 mg/kg/injection, schedule: Q01DX010 (ip), vehicle: water”, the T/C was 118 % of control.
With `CC1NC(=O)C2Cc3ccc(O)c(c3)Oc3ccc(cc3)C(O)C(C(=O)N2C)N(C)C(=O)C(C)NC(=O)C(Cc2ccc(O)cc2)N(C)C(=O)C(C)NC1=O` (stereo not drawn), the T/C by setting is: (dose: 1.0 mg/kg/injection, schedule: Q01DX009 (ip), vehicle: saline with Tween-80) 98 % of control; (dose: 2.0 mg/kg/injection, schedule: Q01DX009 (ip), vehicle: saline with Tween-80) 94 % of control; (dose: 4.0 mg/kg/injection, schedule: Q01DX009 (ip), vehicle: saline with Tween-80) 107 % of control; (dose: 8.0 mg/kg/injection, schedule: Q01DX009 (ip), vehicle: saline with Tween-80) 110 % of control; (dose: 16.0 mg/kg/injection, schedule: Q01DX009 (ip), vehicle: saline with Tween-80) 101 % of control.
Regarding `CCN/C(C)=C\C(=O)OCC`, the T/C is 95 % of control under setting [4]; 122 % of control (dose: 100.0 mg/kg/injection, schedule: Q01DX009 (ip), vehicle: Klucel (hydroxypropylcellulose) (HPC)); 100 % of control under setting [5]; 100 % of control (dose: 100.0 mg/kg/injection, schedule: Q04DX003 (ip), vehicle: Klucel (hydroxypropylcellulose) (HPC)); 111 % of control (dose: 200.0 mg/kg/injection, schedule: Q01DX009 (ip), vehicle: Klucel (hydroxypropylcellulose) (HPC)); 117 % of control under setting [6]. Besides, the T/C (dose: 200.0 mg/kg/injection, schedule: Q04DX003 (ip), vehicle: Klucel (hydroxypropylcellulose) (HPC)) is 100 % of control; the T/C (dose: 266.0 mg/kg/injection, schedule: Q01DX009 (ip), vehicle: Klucel (hydroxypropylcellulose) (HPC)) is 99 % of control; the T/C (dose: 400.0 mg/kg/injection, schedule: Q01DX009 (ip), vehicle: Klucel (hydroxypropylcellulose) (HPC)) was 99 % of control; the T/C (dose: 400.0 mg/kg/injection, schedule: Q01DX009 (ip), vehicle: saline with Tween-80) is 111 % of control; the T/C (dose: 400.0 mg/kg/injection, schedule: Q04DX003 (ip), vehicle: Klucel (hydroxypropylcellulose) (HPC)) was 100 % of control.
For `O=C1c2ccccc2C(=O)N1CNc1cccc(NCN2C(=O)c3ccccc3C2=O)c1`, the T/C (dose: 100.0 mg/kg/injection, schedule: Q01DX001 (ip), vehicle: saline) was 100 % of control; the T/C (dose: 100.0 mg/kg/injection, schedule: Q04DX003 (ip), vehicle: saline) is 104 % of control; the T/C (dose: 200.0 mg/kg/injection, schedule: Q01DX001 (ip), vehicle: saline) was 100 % of control; the T/C (dose: 200.0 mg/kg/injection, schedule: Q04DX003 (ip), vehicle: saline) was 104 % of control; the T/C (dose: 400.0 mg/kg/injection, schedule: Q01DX001 (ip), vehicle: saline) is 90 % of control; the T/C (dose: 400.0 mg/kg/injection, schedule: Q04DX003 (ip), vehicle: saline) was 100 % of control.
As to `OC1(c2ccncc2)C=CCC1` (stereo not drawn), the T/C reads like this: (dose: 25.0 mg/kg/injection, schedule: Q04DX002 (ip), vehicle: saline with Tween-80) 100 % of control; (dose: 50.0 mg/kg/injection, schedule: Q04DX002 (ip), vehicle: saline with Tween-80) 106 % of control; (dose: 100.0 mg/kg/injection, schedule: Q04DX002 (ip), vehicle: saline with Tween-80) 97 % of control.
For the compound `CC[n+]1ccc(Nc2ccc(/C=C/c3ccc4cc(Nc5cc[n+](CC)cc5)ccc4[n+]3CC)cc2)cc1`, the T/C by setting is: (dose: 2.5 mg/kg/injection, schedule: Q01DX009 (ip), vehicle: saline) 158 % of control and 161 % of control; (dose: 3.13 mg/kg/injection, schedule: Q01DX009 (oral), vehicle: saline) 86 % of control; (dose: 5.0 mg/kg/injection, schedule: Q01DX009 (ip), vehicle: saline) 177 % of control and 187 % of control; (dose: 6.25 mg/kg/injection, schedule: Q01DX009 (oral), vehicle: saline) 93 % of control; (dose: 10.0 mg/kg/injection, schedule: Q01DX009 (ip), vehicle: saline) 229 % of control and 239 % of control; (dose: 12.5 mg/kg/injection, schedule: Q01DX009 (oral), vehicle: saline) 86 % of control. For the same compound, under “dose: 25.0 mg/kg/injection, schedule: Q01DX009 (oral), vehicle: saline”, the T/C was 86 % of control.
Regarding `CCCCS(=N)(=O)CC[C@H](N)C(=O)O` (stereo partly drawn), the T/C is 96 % of control under setting [7]; 96 % of control under setting [8]; 91 % of control under setting [9]; 91 % of control (dose: 400.0 mg/kg/injection, schedule: Q01DX005 (ip), vehicle: saline).
Regarding `O=c1[nH]cnc2ccc(Cl)cc12`, the T/C by setting is: (dose: 37.5 mg/kg/injection, schedule: Q01DX009 (ip), vehicle: saline with Tween-80) 92 % of control; (dose: 37.5 mg/kg/injection, schedule: Q04DX003 (ip), vehicle: saline with Tween-80) 92 % of control; (dose: 75.0 mg/kg/injection, schedule: Q01DX009 (ip), vehicle: saline with Tween-80) 96 % of control.
